These results are taken from publication PMC11942486, “The Impact of a Quinone Scaffold on Thermo-TRPs Modulation by Dimethylheptyl Phytocannabinoids” (International Journal of Molecular Sciences, 2025).

The structures appear in SMILES notation. Several values for one entry are separate records, joined by “and”; a condition that tells them apart may be missing. Equal values may be shown once.

The IC50 is the concentration at which inhibition is half-maximal. As usually defined, the EC50 is the concentration that produces a half-maximal response.

One experiment deals with T1, rat TRPV3 (Rattus norvegicus, UniProt Q4QYD9).
T1 construct: expressed in transfected cells
T1 sequence (Q4QYD9 1-791): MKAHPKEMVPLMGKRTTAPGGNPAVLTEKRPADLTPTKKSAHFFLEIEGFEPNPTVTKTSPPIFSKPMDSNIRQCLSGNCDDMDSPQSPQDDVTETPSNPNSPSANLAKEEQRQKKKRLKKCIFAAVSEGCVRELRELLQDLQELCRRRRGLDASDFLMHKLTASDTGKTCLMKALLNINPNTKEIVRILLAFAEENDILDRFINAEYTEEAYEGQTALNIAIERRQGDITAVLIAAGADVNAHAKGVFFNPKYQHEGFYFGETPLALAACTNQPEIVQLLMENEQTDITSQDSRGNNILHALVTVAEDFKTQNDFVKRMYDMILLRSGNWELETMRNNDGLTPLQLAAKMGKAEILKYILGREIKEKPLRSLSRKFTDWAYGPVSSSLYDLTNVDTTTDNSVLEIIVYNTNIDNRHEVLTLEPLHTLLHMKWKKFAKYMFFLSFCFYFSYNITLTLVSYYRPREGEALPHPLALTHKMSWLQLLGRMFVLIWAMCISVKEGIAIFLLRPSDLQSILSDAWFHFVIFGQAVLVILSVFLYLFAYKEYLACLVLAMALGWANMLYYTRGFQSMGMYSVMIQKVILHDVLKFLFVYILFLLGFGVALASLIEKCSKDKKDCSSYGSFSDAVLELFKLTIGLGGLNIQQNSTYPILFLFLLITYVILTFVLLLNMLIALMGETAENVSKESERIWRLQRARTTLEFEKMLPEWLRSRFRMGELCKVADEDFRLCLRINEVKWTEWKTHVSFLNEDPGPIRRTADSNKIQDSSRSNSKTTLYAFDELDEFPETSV
Briefly: Thermo-TRP assay: [Ca2+]i elevation (Fluo-4) in HEK-293 cells transfected with TRPV3. The class given is cell-based. Conditions: for TRPV3 Efficacy (% Ionomycin 4 μM): agonist effect as % of ionomycin 4 μM, cells sensitized with 2-aminoethoxydiphenyl borate 100 μM; for IC50: antagonist/desensitizing, vs Thymol 100 μM; for EC50: half-maximal increase in [Ca2+]i, read-out: TRPV3 Potency EC50. The method, then: The compounds were tested on HEK-293 cells either stably transfected with rat TRPA1, TRPV2, TRPV3, TRPV4, TRPM8 or human TRPV1 or not-transfected, by performing a continuous monitoring of the intracellular calcium ([Ca^2+]i) elevation during the experiments, following the protocol already described. On the day of the experiment, the cells were loaded for 1 h in the dark at room temperature with the fluorescent probe Fluo-4 AM (4 μM in DMSO containing 0.02% Pluronic F-127). The cells were rinsed, resuspended in Tyrode’s solution (145 mM NaCl, 2.5 mM KCl, 1.5 mM CaCl2, 1.2 mM MgCl2, 10 mM D-glucose, and 10 mM HEPES, pH 7.4), and transferred to a quartz cuvette of a spectrofluorimeter (PerkinElmer LS50B; λEX = 488 nm, λEM = 516 nm) equipped with a PTP-1 fluorescence Peltier system (PerkinElmer Life and Analytical Sciences, Waltham, MA, USA) under continuous stirring. Cell fluorescence before and after the addition of various concentrations of tested compounds was measured, normalizing the effects against the response to ionomycin (IM, 4 μM). The effect on [Ca^2+]i in non-transfected HEK-293 cells were used as the baseline and subtracted from the values obtained from the transfected ones. The efficacy of the agonists was determined by normalizing their effect to the maximum Ca^2+ influx effect on [Ca^2+]i observed with application of 4μM ionomycin. The effects of TRPA1 agonists are expressed as a percentage of the effect obtained with 100 μM allyl isothiocyanate (AITC). In the TRPV3 assay, rat TRPV3-expressing HEK-293 cells were first sensitized with the structurally unrelated agonist 2-aminoethoxydiphenyl borate (100 μM). For the TRPM8, the experiments were carried out at 22 °C. The potency (EC50 values) is determined as the concentration required to produce half-maximal increases in [Ca^2+]i. Antagonist/desensitizing behavior is evaluated against the agonist of the TRP analyzed by adding the compounds directly in the quartz cuvette 5 min before stimulation of cells with the agonist (allylisothiocyanate (100 μM) for TRPA1, capsaicin (0.1 μM) for TRPV1, cannabidiol (2 μM) for TRPV2, thymol (100 μM) for TRPV3, GSK1016790A (10 nM) for TRPV4, and icilin (0.25 μM) for TRPM8). The IC50 value is expressed as the concentration exerting a half-maximal inhibition of the agonist effect, taking as 100% the effect on [Ca^2+]i exerted by the agonist alone. A dose-response curve fitting (sigmoidal dose-response variable slope) and parameter estimation were performed with Graph-Pad Prism 8 (GraphPad Software Inc., San Diego, CA, USA). All determinations were performed at least in triplicate.

A further experiment concerns the target T2, rat TRPA1 (Rattus norvegicus, UniProt Q6RI86).
T2 construct: expressed in transfected cells
Briefly: Thermo-TRP assay: [Ca2+]i elevation (Fluo-4) in HEK-293 cells transfected with TRPA1. The experiment is classed as cell-based. Conditions: for TRPA1 Efficacy (% AITC 100 μM): agonist effect as % of AITC 100 μM, HEK-293 rat TRPA1; for IC50: antagonist/desensitizing, added 5 min before AITC 100 μM, read-out: IC50 TRPA1; for EC50: half-maximal increase in [Ca2+]i, read-out: TRPA1 Potency EC50. The method, then:
The compounds were tested on HEK-293 cells either stably transfected with rat TRPA1, TRPV2, TRPV3, TRPV4, TRPM8 or human TRPV1 or not-transfected, by performing a continuous monitoring of the intracellular calcium ([Ca^2+]i) elevation during the experiments, following the protocol already described. […] Cell fluorescence before and after the addition of various concentrations of tested compounds was measured, normalizing the effects against the response to ionomycin (IM, 4 μM). The effect on [Ca^2+]i in non-transfected HEK-293 cells were used as the baseline and subtracted from the values obtained from the transfected ones. The efficacy of the agonists was determined by normalizing their effect to the maximum Ca^2+ influx effect on [Ca^2+]i observed with application of 4μM ionomycin. The effects of TRPA1 agonists are expressed as a percentage of the effect obtained with 100 μM allyl isothiocyanate (AITC). In the TRPV3 assay, rat TRPV3-expressing HEK-293 cells were first sensitized with the structurally unrelated agonist 2-aminoethoxydiphenyl borate (100 μM). For the TRPM8, the experiments were carried out at 22 °C. The potency (EC50 values) is determined as the concentration required to produce half-maximal increases in [Ca^2+]i. […] A dose-response curve fitting (sigmoidal dose-response variable slope) and parameter estimation were performed with Graph-Pad Prism 8 (GraphPad Software Inc., San Diego, CA, USA). All determinations were performed at least in triplicate.

T2 sequence (Q6RI86 whole entry): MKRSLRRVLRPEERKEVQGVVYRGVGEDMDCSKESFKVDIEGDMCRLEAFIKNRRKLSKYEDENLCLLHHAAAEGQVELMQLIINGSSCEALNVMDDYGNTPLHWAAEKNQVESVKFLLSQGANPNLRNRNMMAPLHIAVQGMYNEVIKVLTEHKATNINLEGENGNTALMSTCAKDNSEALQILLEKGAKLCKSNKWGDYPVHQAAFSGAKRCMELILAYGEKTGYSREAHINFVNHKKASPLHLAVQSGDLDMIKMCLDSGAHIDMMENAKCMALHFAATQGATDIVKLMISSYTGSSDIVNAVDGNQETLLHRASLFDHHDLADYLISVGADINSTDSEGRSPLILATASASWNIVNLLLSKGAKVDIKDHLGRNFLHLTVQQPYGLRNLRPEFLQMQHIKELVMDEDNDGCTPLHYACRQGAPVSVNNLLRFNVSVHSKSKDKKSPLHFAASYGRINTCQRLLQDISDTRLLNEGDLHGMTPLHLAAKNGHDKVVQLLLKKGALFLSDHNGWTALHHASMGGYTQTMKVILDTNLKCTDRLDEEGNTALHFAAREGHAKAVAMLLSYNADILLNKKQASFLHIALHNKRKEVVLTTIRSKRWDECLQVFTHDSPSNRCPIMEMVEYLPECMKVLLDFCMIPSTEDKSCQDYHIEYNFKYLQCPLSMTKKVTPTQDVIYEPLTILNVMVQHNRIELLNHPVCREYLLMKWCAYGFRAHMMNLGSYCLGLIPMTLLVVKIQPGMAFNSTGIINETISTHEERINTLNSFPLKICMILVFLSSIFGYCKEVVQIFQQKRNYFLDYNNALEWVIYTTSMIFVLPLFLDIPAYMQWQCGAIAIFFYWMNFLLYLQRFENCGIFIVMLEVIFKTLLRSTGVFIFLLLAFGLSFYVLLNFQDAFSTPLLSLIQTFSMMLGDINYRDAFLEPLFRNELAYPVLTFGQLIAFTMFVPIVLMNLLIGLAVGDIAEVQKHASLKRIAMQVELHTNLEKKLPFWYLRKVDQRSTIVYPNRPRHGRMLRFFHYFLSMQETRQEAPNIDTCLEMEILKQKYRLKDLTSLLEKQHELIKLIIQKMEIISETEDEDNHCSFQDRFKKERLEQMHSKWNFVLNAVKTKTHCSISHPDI

On to `C=C(C)[C@@H]1CCC(C)=C[C@H]1C1=C(O)C(=O)C(C(C)(C)CCCCCC)=CC1=O` [5b], for which, at rat TRPV3, the “TRPV3 Efficacy (% Ionomycin 4 μM)” value was 64.3 ± 0.9%, the IC50 was found to be 0.76 ± 0.01 µM and the EC50 came out at 0.46 ± 0.02 µM. Further, at rat TRPA1, the “TRPA1 Efficacy (% AITC 100 μM)” value is listed as 120.4 ± 3.0%, the IC50 was 3.5 ± 0.2 µM and the EC50 was determined as 5.2 ± 0.8 µM.
As for `CCCCCCC(C)(C)C1=CC(=O)C(C/C=C(\C)CCC=C(C)C)=C(O)C1=O` [7b, p-DMHCBGQ], at rat TRPV3, the “TRPV3 Efficacy (% Ionomycin 4 μM)” value amounted to 51.1 ± 1.0%; the IC50 was < 10 µM and 8.6 µM; the EC50 was found to be 1.5 ± 0.2 µM. Also, at rat TRPA1, the “TRPA1 Efficacy (% AITC 100 μM)” value is recorded as 114.2 ± 4.1%, the IC50 worked out at 1.1 ± 0.1 µM and the concentration for a half-maximal effect (EC50) was 1.1 ± 0.2 µM.
On to `CCCCCCC(C)(C)C1=CC2=C(C(=O)C1=O)[C@@H]1CC(C)=CC[C@H]1C(C)(C)O2` [6b], for which, at rat TRPV3, the “TRPV3 Efficacy (% Ionomycin 4 μM)” value amounted to 66.8 ± 2.2%, the IC50 was found to be 0.72 ± 0.08 µM and the EC50 was determined as 0.5 ± 0.1 µM. Besides, on rat TRPA1, the “TRPA1 Efficacy (% AITC 100 μM)” value came to 147.3 ± 7.3%, the half-inhibitory concentration (IC50) stood at 1.8 ± 0.3 µM and the concentration for a half-maximal effect (EC50) was found to be 4.4 ± 1.25 µM.
Regarding `CCCCCCC(C)(C)C1=CC(=O)C2=C(OC(C)(CCC=C(C)C)C=C2)C1=O` (stereo not drawn) [8b], at rat TRPV3, the “TRPV3 Efficacy (% Ionomycin 4 μM)” value was found to be 37.55 ± 0.85%, the IC50 worked out at 38.3 ± 2 µM and the EC50 is 13.6 ± 1.8 µM. Also, at rat TRPA1, the “TRPA1 Efficacy (% AITC 100 μM)” value worked out at 111.2 ± 2.1%, the IC50 amounted to 0.35 ± 0.02 µM and the EC50 worked out at 0.19 ± 0.03 µM.
